Measurements from patent US20220220106A1, “QUINOLINE COMPOUNDS AND PHARMACEUTICAL COMPOSITIONS AND USES THEREOF” (Academy of Military Medical Sciences, priority 2019, published 2022).
Read-outs that look alike come from different tables or passages of the source.

Tests used:
[1] = test system: Enterovirus 71 (EV71) H strain; test: In vitro anti-EV71 activity (antiviral activity in RD cells, CellTiter-Glo); assay type: cell-based; details: for IC50: EV71 H strain, RD cells, 4 days, CellTiter-Glo, read-out: IC50
Procedure: According to the mass and molecular weight of the compound to be tested, the compound to be tested was dissolved to 100 mM (mmol/L) with DMSO.
Detection of Antiviral Activity:
(1) First, the compound to be tested was diluted to 800 μM with cell maintenance solution (DMEM+2% FBS, Gibco, catalog numbers: 11995-065, 1600-044), and three-fold gradient dilution was performed to prepare 10 concentrations in total. The diluted compound was added to a 96-well plate with white wall and transparent bottom, 50 μl per well. To both the cell control group and the virus control group, an equal volume of the cell maintenance solution was added.
(2) EV71 virus (purchased from ATCC) was taken out from the −80° C. refrigerator and equilibrated to room temperature.
(3) The virus seed was diluted with a virus growth solution (DMEM+2% FBS, Gibco, catalog numbers: 11995-065, 1600-044) to 100TCID50, the diluted virus seed was added to the 96-well plate of (1), with […] per well. The same volume of the virus growth solution was added to the cell control group.
(4) RD cells (purchased from ATCC) were inoculated at a concentration of 1*10^5/mL into the 96-well plate of (1), with 100 μL per well, to reach a final volume of 200 μL per well. The final concentration of drug was 0.25 times the initial concentration.
(5) RD cells were cultured at 37° C. for 4 days for testing.
(6) The Buffer of CellTiter-Glo® luminescent cell viability assay reagent (Promega) was mixed with the substrate in the dark to prepare a working solution.
(§1) (7) The culture medium in the plate was discarded, the plate was dried by patting, 100 μL of the detection reagent was added to each well, and the 96-well plate was shaken on an orbital shaker for 4 minutes to induce cell lysis. After keeping in the dark and subjecting to signal stabilization for 15 minutes, the chemiluminescence unit was detected by using MD5 microplate reader (Molecular Devices), and the plate reading program was performed according to the CellTiter-Glo preset program.
The inhibition rate-concentration curve was fitted to S-curve by using origin8.0 software to calculate the IC50 value of the compound to be tested.
(§2) The formula for calculating the inhibition rates of drug at different dilution degrees was as follows: inhibition rate (%)=(average value of cell control group−value of experimental group)/(average value of cell control group−minimum value of experimental group)*100
(§3) The inhibition rate-concentration curve was fitted to S-curve by using origin8.0 software, and the IC50 value of the compound to be tested was calculated. The same method was used to calculate the TD50 value, and the selection index SI=TD50/IC50 was calculated according to the half maximal inhibitory concentration IC50 and the median toxic dose TD50.

[2] = test system: RD cells; test: Detection of cytotoxicity in RD cells (CellTiter-Glo); assay type: cell-based; details: 4 days, CellTiter-Glo, median toxic dose
Procedure: Detection of Cytotoxicity:
(1) The compound to be tested was diluted to a concentration of 400 μM with the cell maintenance solution, and 3-fold gradient dilution was carried out to obtain 10 concentrations in total.
(2) The diluted compound was added to a 96-well plate with white wall and transparent bottom, with 100 μL per well. An equal volume of the cell maintenance solution was added to the cell control group.
(3) RD cells were inoculated into the above 96-well plate at a concentration of 1*10^5/mL, with 100 μL per well, to reach a final volume of 200 μL per well, and the final concentration of drug was 0.5 times the pretreatment concentration.
(4) The RD cells were cultured at 37° C. for 4 days for testing.
(5) The Buffer of CellTiter-Glo® luminescent cell viability assay reagent was mixed with the substrate in the dark to prepare a working solution.
as §1, with “(6)” for “(7)”, “detected,” for “detected by using MD5 microplate reader (Molecular Devices),”
as §2, §3

With CC(=O)/C=C/c1cnc2ccc(-c3ccc(N)nc3)cc2c1Nc1cccc(C(F)(F)F)c1 [HTL-2-34, (E)-6-[3-(6-amino)pyridyl]-4-[3-(trifluoromethyl)phenyl]aminoquinoline-3-butenone] the “in vitro anti-EV71 activity, in words” value ([1]; EV71, RD cells) was “moderate anti-EV71 activity”, the IC50 ([1]; Enterovirus A, 96 h) was 1.78 ± 0.03 µM and the TD50 [2] was 4.99 ± 1.55 µM. For the same compound, the melting point was 172 to 175 °C.

In the case of CC(=O)/C=C/c1cnc2ccc(-c3cccc(N)c3)cc2c1Nc1cccc(C(F)(F)F)c1 [HTL-2-42, (E)-6-(3-aminophenyl)-4-[3-(trifluoromethyl)phenyl]aminoquinoline-3-butenone], the IC50 ([1]; Enterovirus A, 96 h) is reported as > 200 µM, the TD50 [2] is reported as >200 µM and the melting point is reported as 184 to 186 °C.

With CC(=O)/C=C/c1cnc2ccc(-c3ccncc3)cc2c1Nc1cccc(C(F)(F)F)c1 [HTL-3-04, (E)-6-(4-pyridyl)-4-[3-(trifluoromethyl)phenyl]aminoquinoline-3-butenone] the IC50 ([1]; Enterovirus A, 96 h) was > 200 µM, the TD50 [2] was >200 µM and the melting point was 192 to 195 °C.

With COc1cncc(-c2ccc3ncc(/C=C/C(C)=O)c(Nc4cccc(C(F)(F)F)c4)c3c2)c1 [HTL-3-07, (E)-6-[3-(5-methoxy)pyridyl]-4-[3-(trifluoromethyl)phenyl]aminoquinoline-3-butenone] the IC50 ([1]; Enterovirus A, 96 h) was > 200 µM, the TD50 [2] was >200 µM and the melting point was 164 to 167 °C.

For CC(=O)/C=C/c1cnc2ccc(-c3ccc(O)cc3)cc2c1Nc1cccc(C(F)(F)F)c1 [HTL-3-11, (E)-6-(4-hydroxy)phenyl-4-[3-(trifluoromethyl)phenyl]aminoquinoline-3-butenone], the IC50 ([1]; Enterovirus A, 96 h) was > 200 µM, the TD50 [2] was >200 µM and the melting point was 218 to 222 °C.

For CC(=O)/C=C/c1cnc2ccc(-c3ccc(F)cc3)cc2c1Nc1cccc(C(F)(F)F)c1 [HTL-3-12, (E)-6-(4-fluoro)phenyl-4-[3-(trifluoromethyl)phenyl]aminoquinoline-3-butenone], the IC50 ([1]; Enterovirus A, 96 h) was > 200 µM, the TD50 [2] was >200 µM and the melting point was 167 to 169 °C.

For CC(=O)/C=C/c1cnc2ccc(-c3ccc(C#N)cc3)cc2c1Nc1cccc(C(F)(F)F)c1 [HTL-3-15, (E)-6-(4-cyano)phenyl-4-[3-(trifluoromethyl)phenyl]aminoquinoline-3-butenone], the IC50 ([1]; Enterovirus A, 96 h) was > 200 µM, the TD50 [2] was >200 µM and the melting point was 173 to 174 °C.

In the case of CCOc1cccc(-c2ccc3ncc(/C=C/C(C)=O)c(Nc4cccc(C(F)(F)F)c4)c3c2)c1 [HTL-3-16, (E)-6-(3-ethoxy)phenyl-4-[3-(trifluoromethyl)phenyl]aminoquinoline-3-butenone], the IC50 ([1]; Enterovirus A, 96 h) is reported as > 200 µM, the TD50 [2] is reported as 0.83 ± 0.79 µM and the melting point is reported as 184 to 185 °C.

With CC(=O)/C=C/c1cnc2ccc(-c3ccc(C(F)(F)F)cc3)cc2c1Nc1cccc(C(F)(F)F)c1 [HTL-3-18, (E)-6-[4-(trifluoromethyl)phenyl]-4-[3-(trifluoromethyl)phenyl]aminoquinoline-3-butenone] the IC50 ([1]; Enterovirus A, 96 h) was > 200 µM, the TD50 [2] was >200 µM and the melting point was 189 to 191 °C.

For CC(=O)/C=C/c1cnc2ccc(-c3ccoc3)cc2c1Nc1cccc(C(F)(F)F)c1 [HTL-3-22, (E)-6-(3-furyl)-4-[3-(trifluoromethyl)phenyl]aminoquinoline-3-butenone], the IC50 ([1]; Enterovirus A, 96 h) was > 200 µM, the TD50 [2] was 1.55 ± 1.03 µM and the melting point was 151 to 154 °C.

With O=c1ccc2cnc3ccc(Nc4ccc(C(F)(F)F)cc4)cc3c2n1-c1cccc(C(F)(F)F)c1 [HTL-6-16, 9-[4-(trifluoromethyl)phenyl]imino-2-oxo-1-[3-(trifluoromethyl)phenyl]-1,2-dihydrobenzo[h][1,6]naphthyridine] the IC50 ([1]; Enterovirus A, 96 h) was > 200 µM and the TD50 [2] was 7.06 ± 0.23 µM.

In the case of “(E)-6-[3-(N-6-benzyloxyamido)pyridyl]-4-[3-(trifluoromethyl)phenyl]aminoquinoline-3-butenone [HTL-7-22]”, the IC50 [1] is reported as > 200 µM and the TD50 [2] is reported as 9.4 ± 8.0 µM.
